Source: patent US20240398771A1, “TREATMENT OF SCLERODERMA AND RAYNAUD'S SYNDROME” (Aisa Pharma, Inc., priority 2023, published 2024)

How the values were obtained:
participants with SSc-RP [1] = test: SHAQ Standard Disability Index; type: in vivo, human; conditions: Example 4, mITT Part A
Description: The standard, validated, patient reported outcome measures tool for SSc patients, the SHAQ, will be collected at the time points specified in the study schedules (FIG. 2 and FIG. 3A and/or FIG. 3B). To assess the participant's quality of life. The SHAQ includes a Raynaud's VAS that will also be reported separately.
The standard, validated, patient reported outcome measures tool for SSc patients, the Scleroderma Health Assessment Questionnaire (SHAQ), will be used to assess the participant qualify of life. Details are attached in the Appendix. The participant quality of life will be scored, and a disability index calculated for each questionnaire completed by the patient at Screening and each in-clinic visit. The absolute change in participant quality of life from baseline to the end of each dosing period will be calculated similar to frequency data as before.
The SHAQ is used to calculate a Disability Index to assess the participant qualify of life. The eight categories assessed by the Disability Index are 1) dressing and grooming, 2) arising, 3) eating, 4) walking, 5) hygiene, 6) reach, 7) grip, and 8) common daily activities. For each of these categories, patients report the amount of difficulty they have in performing two or three specific activities. […]

participants with SSc-RP [2] = test: Average severity (0-10) of weekly symptomatic RP attacks; type: in vivo, human; conditions: Example 3
Description: The relevant metrics measured by this tool daily are: • Study medication • SSc-RP symptoms (Reporting an attack including duration of attack) • Severity of the attack considering all symptoms of the attack e.g. tingling, numbness, pain, color changes (VAS 0-10 cm scale) • Participant's location at the time of the attack (inside home/outside home) • Selecting symptoms experienced during the attack (tingling, numbness, pain, color changes, other) • Pain rating during the attack (11-point Likert scale) • The RCS based on how much difficulty participants had with Raynaud's today, how many attacks the participant had, and how long they lasted. Participants will also be asked to consider how much pain, numbness, or other symptoms the Raynaud's caused in fingers (including painful sores), and how much the Raynaud's alone affected the use of hands today (VAS 0-10 cm scale).
The absolute change in average severity of weekly RP attacks (VAS 0-10 cm scale) from baseline to the end of each Dosing Period was and will be a secondary outcome variable. The sponsor-developed participant-informed diary will be used to record data. Average severity of weekly RP attacks is defined as the total severity scores of RP attacks divided by total number of RP attacks within the last 7 days of each dosing period. […] The variable will be calculated similar to frequency data as before.

SMILES: COCCOC(=O)C1=C(C)NC(C)=C(C(=O)OC/C=C/c2ccccc2)C1c1cccc([N+](=O)[O-])c1 (centres unmarked) [Cilnidipine, 1,4-dihydro-2,6-dimethyl,4-(3-nitrophenyl)-3,5-pyridinedicarboxylic acid 2-methoxyethyl (2 E)-3-phenyl-2-propenyl ester]
- patient-reported SSc disease disability compared to placebo (participants with SSc-RP [1]): may reduce
- severity of attacks as reported by patients, comparison in words (participants with SSc-RP [2]): 20 mg reducing severity more than 10 mg
